Laboratory results reported in US20240025885A1, “TRIAZINE DERIVATIVES AND METHODS OF USE THEREOF” (priority 2022, published 2024).
Where two headings read alike, the source gives them in different places.

What was measured:
[1] = in vivo; conditions: crab-eating monkey, plasma
Procedure: Crab-Eating Monkey Pharmacokinetic Properties Testing
(§1) Oral administration: the compound was administered with a volume ratio of Solutol:PEG400:Tween80:Saline=10:40:2:48 at a dose of 2 mg/kg. The blood was taken continuously at 0.25 h, 0.5 h, 1 h, 2 h, 4 h, 8 h, 10 h, 12 h and 24 h after drug administration in EP tubes containing EDTA, centrifuged at 8000 rpm/min for 5 min, and then the upper layer of plasma was frozen at −80° C. and stored for LC-MS/MS analysis.
(§2) Intravenous administration: the compound was administered with 10% DMSO/30% PEG400/60% water at a dose of 1 mg/kg). The blood was taken continuously at 0.0833 h, 0.25 h, 0.5 h, 1 h, 2 h, 4 h, 8 h, 12 h and 24 h after drug administration in EP tubes containing EDTA, centrifuged at 8000 rpm/min for 5 min and then the upper layer of plasma was frozen at −80° C. and stored for LC-MS/MS analysis.
The pharmacokinetic parameters were calculated from the blood concentration-time data obtained from the tests using WinNonlin software.

[2] = test system: SARS-CoV-2 Omicron hCoV-19/USA/MD HP20874/2021 (B.1.1.529) strain; test: In vitro antiviral activity against SARS-CoV-2 Omicron B.1.1.529 in Calu-3 cells (NP ELISA, percent virus reduction); assay type: cell-based; conditions: Severe acute respiratory syndrome coronavirus 2, Calu-3, 48 h
[3] = test system: hCoV-19/USA/Chicago IL/2022 (BA.5.2); test: In vitro antiviral activity against SARS-CoV-2 BA.5.2 in Calu-3 cells (NP ELISA, percent virus reduction); assay type: cell-based; conditions: Severe acute respiratory syndrome coronavirus 2, Calu-3, 48 h
[4] = in vivo
Procedure: At Model Pharmacokinetic Properties Testing
as §1, with “of 10” for “of 2”, “mg/kg.” for “mg/kg. The”, “continuously from the fundus venous plexus” for “continuously”, “12 h,” for “12 h”, “after” for “after drug”, “5 min” for “5 min,”
as §2, with “with a volume ratio of” for “with”, “mg/kg). At” for “mg/kg). The blood was taken continuously at”, “drug administration, blood was serially collected from the fundus venous plexus” for “drug administration”
The pharmacokinetic parameters were calculated using WinNonlin software base on the blood concentration-time data obtained from the tests.

[5] = intravenous, 1 mg/kg, read-out: Intravenous injection AUClast
[6] = oral, 2 mg/kg, read-out: Oral AUClast

Row | Compound | AUC(0-t) [1, 5] | AUC(0-t) [1, 6] | EC50 [2] | EC50 [3] | AUC(0-t) ([4]; iv, 1 mg/kg) | AUC(0-t) ([4]; po, 10 mg/kg)
1 | [2H]C([2H])([2H])n1cc2cc(Nc3nc(=O)n(Cc4cocn4)c(=O)n3Cc3cc(F)c(F)cc3F)c(Cl)cc2n1 [Compound 18] | 4890 ng·h/mL | 10400 ng·h/mL | – | – | – | –
2 | Cn1cc2cc(Nc3nc(=O)n(Cc4nccs4)c(=O)n3Cc3cc(F)c(F)cc3F)c(Cl)cc2n1 [Compound 71] | – | – | 34 nM | 45 nM | – | –
3 | Cn1cc2cc(Nc3nc(=O)n(Cc4cocn4)c(=O)n3Cc3cc(F)c(F)cc3F)c(Cl)cc2n1 [Compound 26] | – | – | – | – | 7790 ng·h/mL | 14100 ng·h/mL
4 | O=c1nc(Nc2cc3cn(CCO)nc3cc2Cl)n(Cc2cc(F)c(F)cc2F)c(=O)n1Cc1ccon1 [Compound 70] | 4870 ng·h/mL | 9880 ng·h/mL | 18 nM | 21 nM | – | –
5 | Cn1cc2cc(Nc3nc(=O)n(Cc4ncsn4)c(=O)n3Cc3cc(F)c(F)cc3F)c(Cl)cc2n1 [Compound 78] | – | – | 67 nM | 59 nM | – | –
6 | [2H]C([2H])([2H])n1cc2cc(Nc3nc(=O)n(Cc4ccon4)c(=O)n3Cc3cc(F)c(F)c(F)c3)c(Cl)cc2n1 [Compound 41] | 40600 ng·h/mL | 63300 ng·h/mL | 31 nM | 33 nM | 26500 ng·h/mL | 234000 ng·h/mL
7 | [2H]c1c2cc(Nc3nc(=O)n(Cc4ccon4)c(=O)n3Cc3cc(F)c(F)cc3F)c(Cl)cc2nn1C [Compound 107] | – | – | – | – | 21400 ng·h/mL | 209000 ng·h/mL
8 | [2H]C([2H])([2H])n1cc2cc(Nc3nc(=O)n(Cc4cscn4)c(=O)n3Cc3cc(F)c(F)cc3F)c(Cl)cc2n1 [Compound 16] | 3680 ng·h/mL | 10100 ng·h/mL | 16 nM | 22 nM | 7040 ng·h/mL | 139000 ng·h/mL
9 | [2H]C([2H])([2H])n1cc2cc(Nc3nc(=O)n(Cc4cscn4)c(=O)n3Cc3cc(F)c(F)c(F)c3)c(Cl)cc2n1 [Compound 40] | 36500 ng·h/mL | 62400 ng·h/mL | 23 nM | 40 nM | 9880 ng·h/mL | 134000 ng·h/mL
10 | O=c1nc(Nc2cc3cn(CCO)nc3cc2Cl)n(Cc2cc(F)c(F)cc2F)c(=O)n1Cc1cscn1 [Compound 97] | – | – | – | – | 5670 ng·h/mL | 7660 ng·h/mL
11 | [2H]C([2H])([2H])n1cc2cc(Nc3nc(=O)n(Cc4ccon4)c(=O)n3Cc3cc(F)c(F)cc3F)c(Cl)cc2n1 [Compound 17] | 41000 ng·h/mL | 64300 ng·h/mL | 30 nM | 16 nM | 25400 ng·h/mL | 189000 ng·h/mL
